The results in this text go back to US20220226480A1, “LIPID CONJUGATE PREPARED FROM SCAFFOLD MOIETY” (Integrated Nanotherapeutics Inc., priority 2019, published 2022).

Series [1] can be described thus: Particle size and polydispersity of LNP containing pro-drug (dynamic light scattering). In kind it is physicochemical. Also noted: Size of LNP: unit not given here. As to conditions: for Particle Diameter (nm) / Polydispersity index (PDI): LNP containing 10 mol % conjugate, primary PC-lipid DMPC. Here is the method:
(§1) LNPs were prepared by dissolving 1,2-Distearoyl-sn-glycero-3-phosphocholine (DSPC) or 1,2-dimyristoyl-sn-glycero-3-phosphocholine (DMPC), cholesterol and 1,2-Distearoyl-sn-glycero-3-phosphoethanolamine-Poly(ethylene glycol) (PEG-DSPE) in ethanol. DSPC, DMPC and PEG-DSPE were purchased from Avanti Polar Lipids (Alabaster, Ala.), and cholesterol was obtained from Sigma (St Louis, Mo.).
(§2) Drug-lipid-conjugates INT-D034, INT-D035, INT-D045, INT-D046, INT-D047, INT-D048, INT-D049, INT-D050, INT-D051, INT-D053, INT-D060, INT-D061, INT-D062, INT-D063, INT-D083, INT-D085, INT-D086, INT-D088 and INT-D089 (see FIG. 3 and Example 7 for structures) were dissolved in isopropanol or THF. LNP were prepared by rapidly mixing DSPC or DMPC, cholesterol, drug-lipid conjugate, and PEG-DSPE (in molar ratio of 49/40/10/1) with phosphate-buffered saline (PBS) using a cross-junction mixer. Formulations were dialyzed against PBS to remove residual ethanol. In formulation$ with more than 10 mol % drug-lipid conjugates, the amount of phospholipid or cholesterol was reduced accordingly.
(§3) The physiochemical properties of the LNPs prepared as described above were subsequently characterized. Particle size was determined by dynamic light scattering using a Malvern Zetasizer Nano ZS (Malvern, UK) following buffer exchange into phosphate-buffered saline. Number-weighted size and distribution date was used. Lipid concentrations were determined by measuring total cholesterol using the Cholesterol E enzymatic assay kit from Wako Chemicals USA (Richmond, Va.). The morphology of LNP formulations containing LD-DEX was analyzed by cryogenic-transmission electron microscopy (cryoTEM).

Series [2] is described as follows: Encapsulation efficiency / incorporation of pro-drug in LNP. Type of series: physicochemical. As to conditions: for Encapsulation Efficiency (%): LNP containing 10 mol % conjugate; for % Entrapment: LNP formulations containing pro-drugs (10 mol %, FIG. 6A). Here is the method:
as §1, §2, §3

Where [3] appears, read: LNP formulations containing pro-drugs (10 mol %, FIG. 6A).
Setting [4] is: LNP, pro-drug concentration 50 %.
Setting [5] is: LNP, pro-drug concentration 60 %.
The mark [6] stands for this setting: LNP, pro-drug concentration 80 %.
Setting [7] is: LNP, pro-drug concentration 98 %.
Setting [8] is: LNP, pro-drug concentration 99 %.
The mark [9] stands for this setting: LNP, pro-drug concentration 10 %.
Where [10] appears, read: LNP, pro-drug concentration 20 %.

The structures appear in SMILES notation.

On to `CCCCCCCCCCCC(=O)O[C@@H](C/C=C\CCCCCCCCOC(=O)CCC(=O)OCC(=O)[C@@]1(O)[C@H](C)C[C@H]2[C@@H]3CCC4=CC(=O)C=C[C@]4(C)[C@@]3(F)[C@@H](O)C[C@@]21C)CCCCCC` [INT-D046, (R,Z)-12-(dodecanoyloxy)octadec-9-en-1-yl (2-((8S,9R,10S,11S,13S,14S,16R,17R)-9-fluoro-11,17-dihydroxy-10,13,16-trimethyl-3-oxo-6,7,8,9,10,11,12,13,14,15,16,17-dodecahydro-3H-cyclopenta[a]phenanthren-17-yl)-2-oxoethyl) succinate], for which, in series [1], the “Particle Diameter (nm)” value amounted to 69 nm and the “Polydispersity index (PDI)” value is 0.04. Moreover, in series [1] (setting [3]), the PdI was 0.08 and the “Size of LNP” value was 64. The “Encapsulation Efficiency (%)” value in series [2] (primary PC-lipid DMPC) is 93%. Also, the “% Entrapment” value in series [2] stood at 100%.

As to `CC/C=C\C/C=C\C/C=C\CCCCCCCC(=O)O[C@@H](C/C=C\CCCCCCCCOC(=O)CCC(=O)OCC(=O)[C@@]1(O)[C@H](C)C[C@H]2[C@@H]3CCC4=CC(=O)C=C[C@]4(C)[C@@]3(F)[C@@H](O)C[C@@]21C)CCCCCC` [INT-D049, 2-((8S,9R,10S,11S,13S,14S,16R,17R)-9-fluoro-11,17-dihydroxy-10,13,16-trimethyl-3-oxo-6,7,8,9,10,11,12,13,14,15,16,17-dodecahydro-3H-cyclopenta[a]phenanthren-17-yl)-2-oxoethyl ((R,Z)-12-(linolenoyloxy)octadec-9-en-1-yl) succinate], the “Particle Diameter (nm)” value in series [1] is recorded as 68 nm. The “Polydispersity index (PDI)” value in series [1] was found to be 0.05. Besides, the PdI in series [1] (setting [3]) was 0.11; in series [1] (setting [4]), 0.05; in series [1] (setting [5]) it was 0.02; in series [1] (setting [6]) it was 0.03; in series [1] (setting [7]), 0.05; in series [1] (setting [8]), 0.03. Further, the “Size of LNP” value in series [1] (setting [3]) turned out to be 65. Also, the “Size (nm)” value amounted to 44 nm in series [1] (setting [4]); 61 nm in series [1] (setting [5]); 92 nm in series [1] (setting [6]); 69 nm in series [1] (setting [7]); 103 nm in series [1] (setting [8]). The “Encapsulation Efficiency (%)” value in series [2] (primary PC-lipid DMPC) turned out to be 94%; in series [2] (primary PC-lipid DSPC), 100%. Also, in series [2], the “% Entrapment” value was 100%.

`CCCCCCCCCCCCCCCCCC(=O)O[C@@H](C/C=C\CCCCCCCCOC(=O)CCC(=O)OCC(=O)[C@@]1(O)[C@H](C)C[C@H]2[C@@H]3CCC4=CC(=O)C=C[C@]4(C)[C@@]3(F)[C@@H](O)C[C@@]21C)CCCCCC` [INT-D050, 2-((8S,9R,10S,11S,13S,14S,16R,17R)-9-fluoro-11,17-dihydroxy-10,13,16-trimethyl-3-oxo-6,7,8,9,10,11,12,13,14,15,16,17-dodecahydro-3H-cyclopenta[a]phenanthren-17-yl)-2-oxoethyl ((R,Z)-12-(stearoyloxy)octadec-9-en-1-yl) succinate]: in series [1], the “Particle Diameter (nm)” value worked out at 61 nm and the “Polydispersity index (PDI)” value is listed as 0.04. In series [1] (setting [3]), the PdI was 0.05 and the “Size of LNP” value was found to be 60. In addition, in series [1] (setting [6]), the PdI was 0.01 and the “Size (nm)” value is recorded as 101 nm. For the same molecule, in series [1] (setting [7]), the PdI is listed as 0.02 and the “Size (nm)” value is on record as 61 nm. In series [1] (setting [8]), the PdI was found to be 0.01 and the “Size (nm)” value is on record as 105 nm. Besides, the “Encapsulation Efficiency (%)” value in series [2] (primary PC-lipid DMPC) is on record as 97%. For the same molecule, in series [2], the “% Entrapment” value is 90%.

On to `CCCCC/C=C\C/C=C\C/C=C\C/C=C\CCCC(=O)O[C@@H](C/C=C\CCCCCCCCOC(=O)CCC(=O)OCC(=O)[C@@]1(O)[C@H](C)C[C@H]2[C@@H]3CCC4=CC(=O)C=C[C@]4(C)[C@@]3(F)[C@@H](O)C[C@@]21C)CCCCCC` [INT-D051, 2-((8S,9R,10S,11S,13S,14S,16R,17R)-9-fluoro-11,17-dihydroxy-10,13,16-trimethyl-3-oxo-6,7,8,9,10,11,12,13,14,15,16,17-dodecahydro-3H-cyclopenta[a]phenanthren-17-yl)-2-oxoethyl ((R,Z)-12-(arachidonoyloxy)octadec-9-en-1-yl) succinate], for which the “Particle Diameter (nm)” value in series [1] is 65 nm. In series [1], the “Polydispersity index (PDI)” value turned out to be 0.03. In addition, the PdI in series [1] (setting [3]) is reported as 0.04; in series [1] (setting [6]), 0.02; in series [1] (setting [7]), 0.04; in series [1] (setting [8]), 0.01. Further, the “Size of LNP” value in series [1] (setting [3]) is 61. The results for the “Size (nm)” value in series [1] (setting [6]), in series [1] (setting [7]) and in series [1] (setting [8]) were 87 nm, 56 nm and 93 nm, respectively. Further, the “Encapsulation Efficiency (%)” value is 84% in series [2] (primary PC-lipid DMPC) and 100% in series [2] (primary PC-lipid DSPC). In series [2], the “% Entrapment” value is recorded as 100%.

Take `CCCCCC[C@H](C/C=C\CCCCCCCCOC(=O)c1ccccc1OC(C)=O)OC(=O)CCCCC` [INT-D060, (R,Z)-12-Hexanoyloxyoctadec-9-en-1-yl 2-acetoxybenzoate]: the PdI turned out to be 0.06 in series [1] (setting [9]); 0.116 in series [1] (setting [10]); 0.216 in series [1] (setting [5]); 0.042 in series [1] (setting [6]); 0.034 in series [1] (setting [8]). Moreover, the “Size (nm)” value in series [1] (setting [9]) was 46 nm; in series [1] (setting [10]) it was 42 nm; in series [1] (setting [5]), 71 nm; in series [1] (setting [6]), 67 nm; in series [1] (setting [8]) it was 98 nm.

On to `CCCCC/C=C\C/C=C\CCCCCCCC(=O)O[C@@H](C/C=C\CCCCCCCCOC(=O)c1ccccc1OC(C)=O)CCCCCC` [INT-D061], for which the PdI is 0.061 in series [1] (setting [9]); 0.065 in series [1] (setting [10]); 0.186 in series [1] (setting [5]); 0.089 in series [1] (setting [6]); 0.045 in series [1] (setting [8]). The “Size (nm)” value in series [1] (setting [9]) stood at 44 nm; in series [1] (setting [10]), 39 nm; in series [1] (setting [5]) it was 72 nm; in series [1] (setting [6]) it was 82 nm; in series [1] (setting [8]) it was 123 nm.

Regarding `CCCCCC[C@H](C/C=C\CCCCCCCCOC(=O)CC/C(C)=C/Cc1c(O)c2c(c(C)c1OC)COC2=O)OC(=O)CCCCC` [INT-D062, (12R)-Hexanoyloxyoleyl (E) 6-(4-hydroxy-6-methoxy-7-methyl-3-oxo-1,3-dihydroisobenzofuran-5-yl)-4-methylhex-4-enoate], the PdI is listed as 0.085 in series [1] (setting [9]); 0.072 in series [1] (setting [10]); 0.212 in series [1] (setting [5]); 0.021 in series [1] (setting [6]); 0.019 in series [1] (setting [8]). Moreover, the “Size (nm)” value in series [1] (setting [9]) is given as 42 nm; in series [1] (setting [10]), 39 nm; in series [1] (setting [5]) it was 70 nm; in series [1] (setting [6]), 68 nm; in series [1] (setting [8]) it was 93 nm.

Regarding `CCCCC/C=C\C/C=C\CCCCCCCC(=O)O[C@@H](C/C=C\CCCCCCCCOC(=O)CC/C(C)=C/Cc1c(O)c2c(c(C)c1OC)COC2=O)CCCCCC` [INT-D063, (12R)-Linoleoyloxyoleyl (E)-6-(4-hydroxy-6-methoxy-7-methyl-3-oxo-1,3-dihydroisobenzofuran-5-yl)-4-methylhex-4-enoate], the PdI was determined as 0.069 in series [1] (setting [9]); 0.056 in series [1] (setting [10]); 0.149 in series [1] (setting [5]); 0.031 in series [1] (setting [6]); 0.028 in series [1] (setting [8]). The “Size (nm)” value in series [1] (setting [9]) was 41 nm; in series [1] (setting [10]) it was 41 nm; in series [1] (setting [5]) it was 57 nm; in series [1] (setting [6]), 91 nm; in series [1] (setting [8]) it was 119 nm.

In the case of `CCCCCCCCC(OC(=O)CCCCC)C(CCCCCCCC(=O)OCC(=O)[C@@]1(O)[C@H](C)C[C@H]2[C@@H]3CCC4=CC(=O)C=C[C@]4(C)[C@@]3(F)[C@@H](O)C[C@@]21C)OC(=O)CCCCC` (stereo partly drawn) [INT-D085, 1-(2-((8S,9R,10S,11S,13,14S,16R,17R)-9-Fluoro-11,17-dihydroxy-10,13,16-trimethyl-3-oxo-6,7,8,9,10,11,12,13,14,15,16,17-dodecahydro-3H-cyclopenta[a]phenanthren-17-yl)-2-oxoethoxy)-1-oxooctadecane-9,10-diyl dihexanoate], the PdI in series [1] (setting [3]) came out at 0.06; in series [1] (setting [9]) it was 0.064; in series [1] (setting [10]) it was 0.075; in series [1] (setting [5]), 0.059; in series [1] (setting [6]) it was 0.034; in series [1] (setting [8]), 0.006. Further, in series [1] (setting [3]), the “Size of LNP” value turned out to be 42. The “Size (nm)” value stood at 42 nm in series [1] (setting [9]); 39 nm in series [1] (setting [10]); 56 nm in series [1] (setting [5]); 124 nm in series [1] (setting [6]); 135 nm in series [1] (setting [8]). Also, the “% Entrapment” value in series [2] is listed as 100%.
